Source: patent US6900198B2, “Synthetic catalytic free radical scavengers useful as antioxidants for prevention and therapy of disease” (Eukarion, Inc., priority 1995, dated 2005)

Experiments:
[1] = test system: dopaminergic neurons in mouse striatum; assay: 6-OHDA in mice, 3H-mazindol binding in striatal homogenates; type: in vivo; conditions: C7 4×66 mg/kg; 6-OHDA 50 μg i.c.v.
Procedure: 6-OHDA in mice. Adult male CFW mice were anesthetized with ketamine and rumpun, and immobilized in a stereotaxic device. 6-OHDA, as the hydrobromide salt, was dissolved in normal saline with 1% ascorbate, and 50 μg was administered in lateral ventricle by means of a 10 μl Hamilton syringe. […] Animals were sacrificed 7 days later, and neuronal pathology was assessed by measuring ^3H-mazindol binding in striatal homogenates.

SJL female mice = assay: Experimental Autoimmune Encephalitis (EAE); type: in vivo
From the text: EAE is an animal model of multiple sclerosis.
Mice in both groups were immunized with an encephalitogenic PLP peptide in complete Freund's adjuvant subcutaneously, followed by Petrussis Toxin (IV). Petrussis toxin was repeated on day 3 post immunization.
Animals were scored as follows:
Stage I: Limp tail syndrome
Stage II: Hind leg paralysis
Stage III: Hind leg paralysis-Dragging movement
Stage IV: Paralytic immobility, weight loss

[2] = test system: dopaminergic neurons in mouse brain; assay: MPTP animal model of Parkinson's disease, mazindol binding
Procedure: This model is now widely accepted in the art and is used for evaluating potential therapeutic agents for this disease.
Tritiated mazindol was used for binding studies on samples of the globus pallidus, caudate nucleus, and striatum of mouse brain according to conventional methods; specific binding of tritiated mazindol was determined autoradiographically or by membrane binding (specific binding to the membrane fraction). The experiment was performed over a 7 day period. Mice in the MPTP group were treated […] with MPTP alone (40 mg/kg each day on days 1 and 2). […] The animals were sacrificed after 7 days.
MPTP in mice. Adult male CFW mice (25-33 g) were administered two injections of MPTP dissolved in normal saline (40 mg/kg, s.c.) 24 hours apart. […] Animals were sacrificed 7 days after the first MPTP injection, and neuronal pathology was assessed by the binding of ^3H-mazindol, a ligand for the dopamine transporter, to […] frozen brain sections or to striatal homogenates.

Hippocampal slices = assay: Lactic acid (acidosis)-induced lipid peroxidation in hippocampal slices; type: cell-based, Sprague-Dawley rats; conditions: 50 μM; 30 mM lactate, pH 5.0, 100 minutes
Procedure: Hippocampal slices (400 μm thick) were obtained from Sprague-Dawley rats (150-200 g) and collected in preoxygenated (95% O2/5% CO2) Krebs-Ringer phosphate medium (pH 7.4) containing NaCl 120 mM, KCl 5 mM, CaCl2 1.3 mM, MgCl2 1.2 mM, NaPhosphate 16 mM (pH 7.4) and glucose 10 mM. After 15 minutes preincubation in a water bath at 35° C. under agitation, the buffer was replaced with the same buffer (control) or a modified buffer (lactate buffer) containing NaCl 90 mM, KCl 5 mM, CaCl2 1.3 mM, MgCl2 1.2 mM, NaPhosphate 16 mM and lactic acid 30 mM (pH 5.0). […] After 100 minutes, slices were collected and homogenized in 0.9 ml of TCA 5%, whereas 0.35 ml of TCA 5% was added to 0.5 ml of the incubation medium. Lipid peroxidation was measured by adding 0.25 ml of a thiobarbituric acid reagent (TBAR) to 0.85 ml of the TCA extracts and incubating the mixture for 60 minutes at 85-93° C. Lipids were then extracted with 2×0.5 ml 1-butanol by vortexing for 10 seconds, then centrifuging at 2,000 rpm for 10 minutes. The absorbance of peroxidized lipids in the alcohol phase was measured in a spectrophotometer at 532 nm. Data were expressed as nmoles of malondialdehyde (MDA) using authentic MDA to establish a standard curve. Proteins were measured from an aliquot of the TCA extracts using the method of Bradford and the final results were calculated as nmoles MDA formed/mg protein. […]

[3] = Peroxidase activity, H2O2-dependent oxidation of ABTS; type: biochemical; conditions: C7 with 29 units/ml bovine liver catalase, 10 mM H2O2
Procedure: (§1) Peroxidase activity was assayed by monitoring the hydrogen peroxide-dependent oxidation of 2,2′-azino-bis(3-ethylbenzthiazoline-6) sulfonic acid (ABTS) spectrophotometrically. Standard assay mixtures consisted of 50 mM sodium phosphate, pH 8.1, 0.9% sodium chloride, 0.5 mM ABTS, and H2O2 and salen manganese complex as indicated. Where indicated, 50 mM sodium phosphate buffers of pH 6.0 or pH 7.1 were substituted. Assays were conducted at 27±0.2° C. ABTS oxidation was monitored at 740 or 500 nm to eliminate interference by the salen manganese complexes, many of which absorb in the vicinity of the λmax of oxidized ABTS, and to avoid absorbance values that exceeded the linear range of the spectrophotometer. The amount of oxidized ABTS was estimated using an Δε740 of 20,300 M^−1cm^−1 or an Δε500 of 3400 M^−1cm^−1 calculated based upon the published molar extinction coefficient oat 405 nm (36,800).
Compounds were assayed for SOD as described under Experimental procedures, using cytochrome C as acceptor. The concentration of each compound showing half-maximal activity in this assay is presented. Catalase and peroxidase activities were conducted as described under Experimental Procedures, with 10 μM salen manganese complex. The H2O2 concentration was 10 mM and 0.2 mM in the catalase and peroxidase assays, respectively. Where denoted, “nd” means that the assay was not performed on this compound.
Catalase and peroxidase activities were assayed as described in Example 2. Catalase assays contained 10 μM salen-manganese complex and 10 mM hydrogen peroxide. Peroxidase assays contained 10 μM salen-manganese complex and 0.2 mM hydrogen peroxide. Glucose-glucose oxidase toxicity assays were performed using human dermal fibroblasts as described in Example 2.

[4] = Peroxidase activity toward t-BHP, ABTS oxidation; type: biochemical; conditions: 1 mM t-BHP versus same concentration of H2O2
Procedure: as §1
(In comparison, horseradish peroxidase utilized t-BHP with an ABTS oxidation rate that was about 5.4% of the rate with H2O2).

[5] = cited from earlier work

For [Cl][Mn]1[O]c2ccccc2C=NCCN=Cc2ccccc2[O]1 [Compound C7], the “effect on 6-OHDA-induced decrease in mazindol binding, contralateral striatum” value [1] was “complete protection”, the “effect on 6-OHDA-induced decrease in mazindol binding, ipsilateral striatum” value [1] was “significant reduction” and the “mice that developed symptomatic EAE” value (SJL female mice; fifth week, three weeks after treatment was stopped, group of 10 mice) was “six”. For the same molecule, the “mice that developed symptomatic EAE” value (SJL female mice; third week following immunization, 1 mg/mouse daily IP, control 8 of 20) was “one of 10”, the “number of surviving dopaminergic neurons in mice treated with MPTP” value ([2]; C7 33 mg/kg i.p. days 1-3, MPTP 40 mg/kg days 1 and 2, versus MPTP alone) was “approximately doubled” and the “protection against the reduction in 3H-mazindol binding” value ([2]; C7 3×33 mg/kg, i.p., MPTP 2×40 mg/kg, s.c.) was “significant (p<0.05) degree of protection”. The “protection against the reduction in 3H-mazindol binding measured in striatal homogenates” value ([2]; C7 3×33 mg/kg, i.p., MPTP 2×40 mg/kg, s.c., panel B) was “significant protection”, the “number of dopaminergic neurons in regions of the mouse brain, compound alone” value ([2]; C7 alone, no MPTP) was “not adversely affected” and the “lactate-induced increase in lipid peroxidation (malondialdehyde)” value (Hippocampal slices) was “totally abolished the increase in lipid peroxidation”. The “total ABTS oxidized in the presence of added catalase” value [3] was 18 µM, the “ABTS oxidation rate with t-BHP as percent of the rate with H2O2” value [4] was “about 0.5%” and the “SOD activity previously found” value [5] was “about 769 units/mM”.
